Measurements: US8835433B2, “Optically pure diastereomers of 10-Propargyl-10-deazaaminopterin and methods of using same for the treatment of cancer” (Allos Therapeutics, Inc., priority 2010, dated 2014)
pIC50: −log10 of the molar value.

Columns and labels:
[1] = tested on: CWR22-RV1 (prostate) cell lines; experiment: MTS growth inhibition assay, CWR22-RV1; type: cell-based; conditions: Homo sapiens, CWR22Rv1, separate experiments
[2] = tested on: SKBR-3 (breast cancer) human tumor cell line; experiment: MTS growth inhibition assay, SKBR-3; type: cell-based; conditions: SK-BR-3, SK-BR3 (breast), 3 h treatment, 72 h recovery
Procedure: (§1) The agents PDX, PDX-10a, PDX-10b, were evaluated for growth inhibitory activity against, MDA-MB-435, SKBR-3 and NCI-H460 human tumor cell lines. Growth inhibition was measured by MTS assay following three hours of continuous treatment and a seventy-two hour recovery incubation. The purpose of these studies was to determine the cytotoxic activity of the compounds in the tumor cell lines studies studied.
Materials and Methods. Preparation of PDX-10a and PDX-10b was performed as discussed in Examples 1-2. The PDX compounds were diluted in dimethylsulfoxide (DMSO) at a concentration of 20 mM. From this solution a stock solution of 2 mM was made by dilution with phosphate-buffered saline (PBS). This 2 mM stock solution in 10% DMSO/90% PBS was used to make 2× concentrations of the titration series in cell growth medium which was added to the cell cultures in a 1:1 ratio to make 1× concentrations. Cell lines—The human tumor cell lines: MDA-MB-435 (melanoma), SKBR-3 (breast cancer) and NCI-H460 (lung cancer) were cultured in RPMI medium (RPMI; Nova Tech, Grand Island, N.Y.) containing ten percent dialyzed fetal bovine serum (FBS; Nova Tech). […]
Single Agent Pulse Studies—Treatment with test agents or standard agents (controls) was initiated 24 hours after plating cells (Day 1). […] Following incubation, the viable cell number was quantified by the MTS assay described below. […]
MTS Assay—Cell viability was determined using the MTS assay. […] Formazan production was quantified by spectrophotometric measurement at 490 nm and is proportional to viable cell number. […] Absorbance (OD) values were measured using a Dynex HD microplate reader at a single wavelength of 490 nm.
(§2) Data Analysis—Data from each experiment was collected and expressed as OD490 versus the log10 of the test agent concentration. […]

[3] = tested on: MDA-MB-435 (melanoma) human tumor cell line; experiment: MTS growth inhibition assay, MDA-MB-435; type: cell-based; conditions: 3 h treatment, 72 h recovery
Procedure: as §1
(§3) Materials and Methods. Preparation of PDX-10a and PDX-10b was performed as discussed in Examples 1-2. The PDX compounds were diluted in dimethylsulfoxide (DMSO) at a concentration of 20 mM. From this solution a stock solution of 2 mM was made by dilution with phosphate-buffered saline (PBS). This 2 mM stock solution in 10% DMSO/90% PBS was used to make 2× concentrations of the titration series in cell growth medium which was added to the cell cultures in a 1:1 ratio to make 1× concentrations. Cell lines—The human tumor cell lines: MDA-MB-435 (melanoma), SKBR-3 (breast cancer) and NCI-H460 (lung cancer) were cultured in RPMI medium (RPMI; Nova Tech, Grand Island, N.Y.) containing ten percent dialyzed fetal bovine serum (FBS; Nova Tech). Once cells reached seventy percent confluency, they were trypsinized and resuspended in an alternate media (RPMI containing five percent dialyzed FBS (Hyclone, Logan, Utah). One day prior to treatment (Day 0), cultures were suspended at a concentration of 1−7.5×10^4 cell/ml and 100 μl aliquots were plated into each well of a 96-well microtiter plate at a final concentration of 1×10^3-7.5×10^3 cells/well. Cells were incubated for 24 hours at 37° C. prior to exposure with agents.
(§4) Test Agents—racemic PDX, and individual diastereomers PDX-10a and PDX-10b were prepared as described above. Cells were treated 24 hours after plating (Day 1) with vehicle (media) alone or the above test agents for three hours at concentrations between 3 μM and 10 μM.
(§5) Single Agent Pulse Studies—Treatment with test agents or standard agents (controls) was initiated 24 hours after plating cells (Day 1). Cells were incubated at 37° C. with each of the test agents or a “chemococktail” (positive control) consisting of 215 μM Etoposide, 20 μM Taxol, 38.5 nM Velcade at final concentration for three hours. Following treatment, drug was removed, growth media added, and cells incubated at 37° C. for 72 hours. Following incubation, the viable cell number was quantified by the MTS assay described below. Experiments were repeated twice at the same concentrations. Results from these studies were used to calculate an IC50 value (concentration of drug that inhibits cell growth by 50% of the vehicle) for each compound. IC50 values were generated with Prizm software.
(§6) MTS Assay—Cell viability was determined using the MTS assay. This colorimetric procedure measures conversion of the MTS reagent (a tetrazolium salt) to formazan by living cells. Formazan production was quantified by spectrophotometric measurement at 490 nm and is proportional to viable cell number. For these studies, cells were cultured and treated as listed above. At the end of the treatment, 20 μl MTS tetrazolium (1.9 mg/ml in PBS, pH 6.0) was added to the cells for 1 hour at 37° C. Absorbance (OD) values were measured using a Dynex HD microplate reader at a single wavelength of 490 nm.
as §2

[4] = tested on: NCI-H460 (lung cancer) human tumor cell line; experiment: MTS growth inhibition assay, NCI-H460; type: cell-based
Procedure: as §1, §3, §4, §5, §6
Data Analysis—Data from each experiment was collected and expressed as OD490 versus the log10 of the test agent concentration. Using the statistical analysis package of the Prizm analytical software (GraphPad, San Diego, Calif.), a non-linear curve fit was performed which yielded the 50% inhibition concentration of the test article (IC50).

tumor xenotransplant = experiment: In vivo xenograft models with solid tumors and lymphomas; conditions: nude female mice, IP injection; some / other explants; Example 6
Procedure: Nude female mice are inoculated subcutaneously in the right flank with appropriate tumor cells as discussed in Example 5 to establish the xenotransplant. Tumor volume and body weights are monitored twice a week. Once the established tumor reaches 75-150 mm^3 the mice are randomized to a treatment group, either control, racemic PDX, PDX-10a, or PDX-10b. Treatments are administered by IP injection. Phosphate buffered saline is administered as control vehicles.

[5] = tested on: Type II collagen arthritis; experiment: Type II collagen arthritis mouse model; type: in vivo; conditions: DBA/1 mice, some / other components/aspects of the arthritis, Example 7
Procedure: The study uses a mouse model of inflammatory disease that occurs in response to an antigenic challenge with Type II collagen according to method described in Nature, 283, 666-668 […]. DBA/1 mice are immunized with a suspension of fetal bovine Type II collagen (1 mg/ml) prepared in complete Freund's adjuvant. The primary injection is given using 0.1 ml of the collagen emulsion giving a total of 0.1 mg of Type II collagen per mouse. The animals are given a booster injection of Type II collagen (100 μg in 0.01M acetic acid) on day 21 by intraperitoneal injection.
The effect of methotrexate and test compounds racemic PDX, PDX-10a and PDX-10b on the extent of inflammation is determined by visual observation and by direct analysis of paw swelling using caliper measurements.

[6] = Homo sapiens, MDA-MB-435, MDA-MB-435 (melanoma)
[7] = Homo sapiens, NCI-H460, NCI-H460 (lung), 3 h treatment, 72 h recovery, MTS
[8] = Homo sapiens, NCI-H460, NCI-H460 repeat assay

C#CC[C@@H](Cc1cnc2nc(N)nc(N)c2n1)c1ccc(C(=O)N[C@@H](CCC(=O)O)C(=O)O)cc1 (single isomer, unassigned) [PDX-10a]
pIC50 [1]: 7.88 | pIC50 [2]: 7.92 | pIC50 [3, 6]: 7.00 | pIC50 [4, 7]: 6.54 | pIC50 [4, 8]: 6.77 | pIC50 ([4]; NCI-H460 repeat assay): 6.77 | xenograft activity relative to racemate and other diastereomer (tumor xenotransplant): increased activity relative to racemic PDX and/or PDX-10b | antiarthritic activity relative to racemate and other diastereomer [5]: increased activity relative to racemic PDX and/or PDX-10b

C#CC[C@H](Cc1cnc2nc(N)nc(N)c2n1)c1ccc(C(=O)N[C@@H](CCC(=O)O)C(=O)O)cc1 (single isomer, unassigned) [PDX-10b]
pIC50 [1]: 8.07 | pIC50 [2]: 7.58 | pIC50 [3, 6]: 6.92 | pIC50 ([3]; MDA-MB-435 (melanoma)): 6.92 | pIC50 [4, 7]: 7.34 | pIC50 [4, 8]: 7.34 | xenograft activity relative to racemate and other diastereomer (tumor xenotransplant): increased activity relative to racemic PDX and/or PDX-10a | antiarthritic activity relative to racemate and other diastereomer [5]: increased activity relative to racemic PDX and/or PDX-10a
